Experimental data reported in patent publication US9708314B2, “Heterocyclic amide compound” (NISSAN CHEMICAL INDUSTRIES, LTD., priority 2013, dated 2017).

Experiments:
Format in all cases: in vivo
[1] = test system: Cyperus difformis; assay: Test Example 3: herbicidal effect by application to foliage (Wagner pot, water depth 0.1-0.5 cm); settings: Nineteenth Table; application to foliage; application herbicide amount 320 g/ha
In short: (§1)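 Plants are raised 14 days from seed in flooded-surface Wagner pots at 25–30 °C, sprayed on stems and leaves with diluted emulsion at a predetermined rate, and rated three weeks on using a 0–5 herbicidal-ratio scale (5 ≥90%).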

[2] = test system: Echinochloa crus-galli var. crus-galli; assay: as above; settings: Nineteenth Table; application to foliage; application herbicide amount 320 g/ha
In short: as §1

[3] = test system: Leptochloa chinensis; assay: as above; settings: Nineteenth Table; application to foliage; application herbicide amount 320 g/ha
In short: as §1

[4] = test system: directly sowed Oryza sativa; assay: Test Example 3: effect on crop by application to foliage (Wagner pot, water depth 0.1-0.5 cm); settings: Nineteenth Table; application to foliage; application herbicide amount 320 g/ha
In short: as §1

[5] = test system: Abutilon theophrasti; assay: Test Example 4: herbicidal effect by application to foliage (diluvial soil, plastic box); settings: foliage application, 320 g/ha
In short: (§2)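 Greenhouse plants (25° C. to 30° C., 14 d, diluvial soil) receive a foliar spray of water-diluted emulsifiable formulation at defined g/ha. Grading after 3 weeks uses a six-step herbicidal-ratio scale, with 4 covering 70% to <90% and 1 covering 5% to <20%.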

[6] = test system: Alopecurus myosuroides; assay: as above; settings: foliage application, 320 g/ha
In short: as §2

[7] = test system: Amaranthus retroflexus; assay: as above; settings: foliage application, 320 g/ha
In short: as §2

[8] = test system: Apera spica-venti.; assay: as above; settings: foliage application, 320 g/ha
In short: as §2

[9] = test system: Avena fatua; assay: as above; settings: foliage application, 320 g/ha
In short: as §2

[10] = test system: Chenopodium album; assay: as above; settings: foliage application, 320 g/ha
In short: as §2

[11] = test system: Digitaria ciliaris; assay: as above; settings: foliage application, 320 g/ha
In short: as §2

[12] = test system: Echinochloa crus-galli var. crus-galli; assay: as above; settings: foliage application, 320 g/ha
In short: as §2

[13] = test system: Galium spurium; assay: as above; settings: foliage application, 320 g/ha
In short: as §2

[14] = test system: Lolium multiflorum Lam.; assay: as above; settings: foliage application, 320 g/ha
In short: as §2

[15] = test system: Setaria viridis; assay: as above; settings: foliage application, 320 g/ha
In short: as §2

[16] = test system: Stellaria media; assay: as above; settings: foliage application, 320 g/ha
In short: as §2

[17] = test system: Veronica persica; assay: as above; settings: foliage application, 320 g/ha
In short: as §2

Compound | E (herbicidal effect grade) [1] | H (herbicidal effect grade) [2] | D (herbicidal effect grade) [3] | b (effect on crop grade) [4] | M (Abutilon theophrasti) herbicidal effect grade [5] | J (Alopecurus myosuroides) herbicidal effect grade [6] | N (Amaranthus retroflexus) herbicidal effect grade [7] | L (Apera spica-venti.) herbicidal effect grade [8] | I (Avena fatua) herbicidal effect grade [9] | O (Chenopodium album) herbicidal effect grade [10] | F (Digitaria ciliaris) herbicidal effect grade [11] | H (Echinochloa crus-galli var. crus-galli) herbicidal effect grade [12] | Q (Galium spurium) herbicidal effect grade [13] | K (Lolium multiflorum Lam.) herbicidal effect grade [14] | G (Setaria viridis) herbicidal effect grade [15] | P (Stellaria media) herbicidal effect grade [16] | R (Veronica persica) herbicidal effect grade [17]
CC(C)Nc1nnc2c(C(=O)Nc3nnnn3C)ccc(C(F)(F)F)n12 [2-066] | 5 (Herbicidal ratio of 90% or more (almost completely withered)) | 5 (Herbicidal ratio of 90% or more (almost completely withered)) | 5 (Herbicidal ratio of 90% or more (almost completely withered)) | 3 (Herbicidal ratio of 40% or more and less than 70%) | 4 (Herbicidal ratio of 70% or more and less than 90%) | 3 (Herbicidal ratio of 40% or more and less than 70%) | 5 (Herbicidal ratio of 90% or more (almost completely withered)) | 3 (Herbicidal ratio of 40% or more and less than 70%) | 2 (Herbicidal ratio of 20% or more and less than 40%) | 5 (Herbicidal ratio of 90% or more (almost completely withered)) | 5 (Herbicidal ratio of 90% or more (almost completely withered)) | 5 (Herbicidal ratio of 90% or more (almost completely withered)) | 3 (Herbicidal ratio of 40% or more and less than 70%) | 3 (Herbicidal ratio of 40% or more and less than 70%) | 5 (Herbicidal ratio of 90% or more (almost completely withered)) | 5 (Herbicidal ratio of 90% or more (almost completely withered)) | 5 (Herbicidal ratio of 90% or more (almost completely withered))
Cn1nnnc1NC(=O)c1ccc(C(F)(F)F)n2c([S+](C)[O-])nnc12 (stereo not shown) [2-067] | 5 (Herbicidal ratio of 90% or more (almost completely withered)) | 5 (Herbicidal ratio of 90% or more (almost completely withered)) | 5 (Herbicidal ratio of 90% or more (almost completely withered)) | 5 (Herbicidal ratio of 90% or more (almost completely withered)) | 5 (Herbicidal ratio of 90% or more (almost completely withered)) | 4 (Herbicidal ratio of 70% or more and less than 90%) | 5 (Herbicidal ratio of 90% or more (almost completely withered)) | 3 (Herbicidal ratio of 40% or more and less than 70%) | 5 (Herbicidal ratio of 90% or more (almost completely withered)) | 5 (Herbicidal ratio of 90% or more (almost completely withered)) | 5 (Herbicidal ratio of 90% or more (almost completely withered)) | 5 (Herbicidal ratio of 90% or more (almost completely withered)) | 4 (Herbicidal ratio of 70% or more and less than 90%) | 4 (Herbicidal ratio of 70% or more and less than 90%) | 5 (Herbicidal ratio of 90% or more (almost completely withered)) | 5 (Herbicidal ratio of 90% or more (almost completely withered)) | 5 (Herbicidal ratio of 90% or more (almost completely withered))
CCCSc1nnc2c(C(=O)Nc3nnnn3C)ccc(C(F)(F)F)n12 [2-068] | 5 (Herbicidal ratio of 90% or more (almost completely withered)) | 5 (Herbicidal ratio of 90% or more (almost completely withered)) | 5 (Herbicidal ratio of 90% or more (almost completely withered)) | 5 (Herbicidal ratio of 90% or more (almost completely withered)) | 5 (Herbicidal ratio of 90% or more (almost completely withered)) | 2 (Herbicidal ratio of 20% or more and less than 40%) | 5 (Herbicidal ratio of 90% or more (almost completely withered)) | 3 (Herbicidal ratio of 40% or more and less than 70%) | 3 (Herbicidal ratio of 40% or more and less than 70%) | 5 (Herbicidal ratio of 90% or more (almost completely withered)) | 5 (Herbicidal ratio of 90% or more (almost completely withered)) | 5 (Herbicidal ratio of 90% or more (almost completely withered)) | 4 (Herbicidal ratio of 70% or more and less than 90%) | 2 (Herbicidal ratio of 20% or more and less than 40%) | 5 (Herbicidal ratio of 90% or more (almost completely withered)) | 5 (Herbicidal ratio of 90% or more (almost completely withered)) | 5 (Herbicidal ratio of 90% or more (almost completely withered))
CCC[S+]([O-])c1nnc2c(C(=O)Nc3nnnn3C)ccc(C(F)(F)F)n12 (stereo not shown) [2-069] | 5 (Herbicidal ratio of 90% or more (almost completely withered)) | 5 (Herbicidal ratio of 90% or more (almost completely withered)) | 5 (Herbicidal ratio of 90% or more (almost completely withered)) | 5 (Herbicidal ratio of 90% or more (almost completely withered)) | 5 (Herbicidal ratio of 90% or more (almost completely withered)) | 3 (Herbicidal ratio of 40% or more and less than 70%) | 5 (Herbicidal ratio of 90% or more (almost completely withered)) | 4 (Herbicidal ratio of 70% or more and less than 90%) | 5 (Herbicidal ratio of 90% or more (almost completely withered)) | 5 (Herbicidal ratio of 90% or more (almost completely withered)) | 5 (Herbicidal ratio of 90% or more (almost completely withered)) | 5 (Herbicidal ratio of 90% or more (almost completely withered)) | 4 (Herbicidal ratio of 70% or more and less than 90%) | 3 (Herbicidal ratio of 40% or more and less than 70%) | 5 (Herbicidal ratio of 90% or more (almost completely withered)) | 5 (Herbicidal ratio of 90% or more (almost completely withered)) | 5 (Herbicidal ratio of 90% or more (almost completely withered))
CCCS(=O)(=O)c1nnc2c(C(=O)Nc3nnnn3C)ccc(C(F)(F)F)n12 [2-070] | 5 (Herbicidal ratio of 90% or more (almost completely withered)) | 5 (Herbicidal ratio of 90% or more (almost completely withered)) | 5 (Herbicidal ratio of 90% or more (almost completely withered)) | 3 (Herbicidal ratio of 40% or more and less than 70%) | 4 (Herbicidal ratio of 70% or more and less than 90%) | 4 (Herbicidal ratio of 70% or more and less than 90%) | 5 (Herbicidal ratio of 90% or more (almost completely withered)) | 4 (Herbicidal ratio of 70% or more and less than 90%) | 5 (Herbicidal ratio of 90% or more (almost completely withered)) | 5 (Herbicidal ratio of 90% or more (almost completely withered)) | 5 (Herbicidal ratio of 90% or more (almost completely withered)) | 5 (Herbicidal ratio of 90% or more (almost completely withered)) | 4 (Herbicidal ratio of 70% or more and less than 90%) | 4 (Herbicidal ratio of 70% or more and less than 90%) | 5 (Herbicidal ratio of 90% or more (almost completely withered)) | 5 (Herbicidal ratio of 90% or more (almost completely withered)) | 5 (Herbicidal ratio of 90% or more (almost completely withered))
